Legend:
[1] = Volume of distribution at steady state in cynomolgus monkey plasma at 0.5 mg/kg, iv measured 24 hrs post dose by LC/MS/MS analysis; assay type: ADME, organism-based, Macaca fascicularis; settings: read-out: Vdss
Cytochrome P450 1A2 = target: T1, Cytochrome P450 1A2 (Homo sapiens, UniProt P05177); test: Inhibition of CYP1A2 in human liver microsomes after 5 mins in presence of NADPH by LC-MS/MS analysis; assay type: ADME
T1 sequence (P05177 whole entry): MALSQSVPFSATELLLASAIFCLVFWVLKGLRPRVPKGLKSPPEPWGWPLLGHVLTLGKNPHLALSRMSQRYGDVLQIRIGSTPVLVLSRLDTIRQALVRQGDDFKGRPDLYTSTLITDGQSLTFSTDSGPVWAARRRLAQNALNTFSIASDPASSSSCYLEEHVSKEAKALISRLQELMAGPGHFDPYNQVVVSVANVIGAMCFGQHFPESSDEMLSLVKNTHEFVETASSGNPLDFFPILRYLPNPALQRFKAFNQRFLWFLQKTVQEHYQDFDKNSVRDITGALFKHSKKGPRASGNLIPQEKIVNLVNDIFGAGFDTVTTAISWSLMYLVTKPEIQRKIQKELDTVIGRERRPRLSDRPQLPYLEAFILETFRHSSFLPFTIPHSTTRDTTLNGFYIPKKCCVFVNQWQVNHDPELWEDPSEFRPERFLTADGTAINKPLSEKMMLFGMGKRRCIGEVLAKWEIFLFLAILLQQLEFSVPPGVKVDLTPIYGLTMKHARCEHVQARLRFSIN

[2] = Fraction unbound in monkey plasma at 1 uM after 5 hrs by rapid equilibrium dialysis based LC-MS/MS analysis; assay type: ADME, cell-free, Macaca mulatta; settings: rhesus monkey
Salmonella typhimurium = test: Genotoxicity in Salmonella typhimurium by Ames test; assay type: toxicity, organism-based; settings: salmonella enterica subsp. enterica serovar typhimurium
[3] = Oral bioavailability in CD-1 mouse plasma at 5 mg/kg measured 24 hrs post dose by LC/MS/MS analysis; assay type: ADME, organism-based
[4] = Half life in mouse hepatocytes at 1 uM by LC/MS analysis; assay type: ADME, cell-based, Hepatocyte
[5] = Clearance in Sprague-Dawley rat plasma at 1 mg/kg, iv measured 24 hrs post dose by LC/MS/MS analysis; assay type: ADME, organism-based
[6] = Cmax in Sprague-Dawley rat plasma at 5 mg/kg administered via oral gavage measured 24 hrs post dose by LC/MS/MS analysis; assay type: ADME, organism-based; parameters: dose 5 mg/kg, route oral
[7] = Cmax in Beagle dog plasma at […] administered via oral gavage measured 24 hrs post dose by LC/MS/MS analysis; assay type: ADME, organism-based, Canis lupus familiaris; parameters: dose 2.5 mg/kg, route oral
[8] = Fraction unbound in rat plasma at 1 uM after 5 hrs by rapid equilibrium dialysis based LC-MS/MS analysis; assay type: ADME, cell-free
[9] = AUC (0 to infinity) in CD-1 mouse plasma at 5 mg/kg administered via oral gavage measured 24 hrs post dose by LC/MS/MS analysis; assay type: ADME, organism-based; parameters: dose 5 mg/kg, time infinity, route oral
[10] = Clearance in CD-1 mouse plasma at 1 mg/kg, iv measured 24 hrs post dose by LC/MS/MS analysis; assay type: ADME, organism-based
Cytochrome P450 2B6 = target: T2, Cytochrome P450 2B6 (Homo sapiens, UniProt P20813); test: Inhibition of CYP2B6 in human liver microsomes after 5 mins in presence of NADPH by LC-MS/MS analysis; assay type: ADME
T2 sequence (P20813 whole entry): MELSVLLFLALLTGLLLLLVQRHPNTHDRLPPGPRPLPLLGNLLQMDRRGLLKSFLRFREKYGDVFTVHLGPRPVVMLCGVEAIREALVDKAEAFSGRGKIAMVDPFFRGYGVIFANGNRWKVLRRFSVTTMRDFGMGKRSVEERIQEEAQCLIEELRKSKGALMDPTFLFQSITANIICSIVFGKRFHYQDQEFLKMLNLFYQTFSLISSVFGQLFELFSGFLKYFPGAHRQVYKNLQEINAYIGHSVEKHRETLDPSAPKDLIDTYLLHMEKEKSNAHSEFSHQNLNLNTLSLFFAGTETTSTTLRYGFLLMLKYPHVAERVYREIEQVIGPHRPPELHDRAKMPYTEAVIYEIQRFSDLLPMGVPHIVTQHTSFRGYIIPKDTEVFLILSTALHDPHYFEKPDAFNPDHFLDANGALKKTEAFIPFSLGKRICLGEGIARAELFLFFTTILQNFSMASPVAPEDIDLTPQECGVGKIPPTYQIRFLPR

Cytochrome P450 2C9 = Cytochrome P450 2C9 (Homo sapiens, UniProt P11712); test: Inhibition of CYP2C9 in human liver microsomes after 5 mins in presence of NADPH by LC-MS/MS analysis; assay type: ADME
[11] = Fraction unbound in human plasma at 1 uM after 5 hrs by rapid equilibrium dialysis based LC-MS/MS analysis; assay type: ADME, cell-free
Cytochrome P450 3A4 = Cytochrome P450 3A4 (Homo sapiens, UniProt P08684); test: Inhibition of CYP3A4 in human liver microsomes after 5 mins in presence of NADPH by LC-MS/MS analysis; assay type: ADME
[12] = Half life in Sprague-Dawley rat plasma at 1 mg/kg, iv by LC/MS/MS analysis; assay type: ADME, organism-based
[13] = Fraction unbound in dog plasma at 1 uM after 5 hrs by rapid equilibrium dialysis based LC-MS/MS analysis; assay type: ADME, cell-free, Canis lupus familiaris
[14] = Cmax in cynomolgus monkey plasma at […] administered via oral gavage measured 24 hrs post dose by LC/MS/MS analysis; assay type: ADME, organism-based, Macaca fascicularis; parameters: dose 2.5 mg/kg, route oral
[15] = Oral bioavailability in cynomolgus monkey plasma at […] measured 24 hrs post dose by LC/MS/MS analysis; assay type: ADME, organism-based, Macaca fascicularis
Cytochrome P450 2D6 = Cytochrome P450 2D6 (Homo sapiens, UniProt P10635); test: Inhibition of CYP2D6 in human liver microsomes after 5 mins in presence of NADPH by LC-MS/MS analysis; assay type: ADME
[16] = Volume of distribution at steady state in Beagle dog plasma at 0.5 mg/kg, iv measured 24 hrs post dose by LC/MS/MS analysis; assay type: ADME, organism-based, Canis lupus familiaris; settings: read-out: Vdss
[17] = Clearance in Beagle dog plasma at 0.5 mg/kg, iv measured 24 hrs post dose by LC/MS/MS analysis; assay type: ADME, organism-based, Canis lupus familiaris
[18] = Volume of distribution at steady state in CD-1 mouse plasma at 1 mg/kg, iv measured 24 hrs post dose by LC/MS/MS analysis; assay type: ADME, organism-based; settings: read-out: Vdss
Cytochrome P450 2C19 = Cytochrome P450 2C19 (Homo sapiens, UniProt P33261); test: Inhibition of CYP2C19 in human liver microsomes after 5 mins in presence of NADPH by LC-MS/MS analysis; assay type: ADME
[19] = Half life in cynomolgus monkey plasma at 0.5 mg/kg, iv by LC/MS/MS analysis; assay type: ADME, organism-based, Macaca fascicularis
[20] = Half life in Beagle dog plasma at 0.5 mg/kg, iv by LC/MS/MS analysis; assay type: ADME, organism-based, Canis lupus familiaris

Cytochrome P450 2C9, sequence (P11712 whole entry): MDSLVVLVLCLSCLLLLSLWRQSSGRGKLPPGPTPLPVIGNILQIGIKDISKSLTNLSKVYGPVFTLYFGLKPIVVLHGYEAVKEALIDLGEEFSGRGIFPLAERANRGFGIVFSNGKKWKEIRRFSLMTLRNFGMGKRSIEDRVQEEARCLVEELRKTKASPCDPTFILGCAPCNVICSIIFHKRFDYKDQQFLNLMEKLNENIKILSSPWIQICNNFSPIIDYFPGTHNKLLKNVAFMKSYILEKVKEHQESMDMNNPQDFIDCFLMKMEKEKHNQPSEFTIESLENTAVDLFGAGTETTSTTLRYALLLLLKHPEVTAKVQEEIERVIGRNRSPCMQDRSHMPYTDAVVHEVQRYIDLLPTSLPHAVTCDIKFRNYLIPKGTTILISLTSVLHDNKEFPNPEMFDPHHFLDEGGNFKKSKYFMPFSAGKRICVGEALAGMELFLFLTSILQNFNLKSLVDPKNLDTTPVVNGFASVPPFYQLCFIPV
Cytochrome P450 3A4, sequence (P08684 whole entry): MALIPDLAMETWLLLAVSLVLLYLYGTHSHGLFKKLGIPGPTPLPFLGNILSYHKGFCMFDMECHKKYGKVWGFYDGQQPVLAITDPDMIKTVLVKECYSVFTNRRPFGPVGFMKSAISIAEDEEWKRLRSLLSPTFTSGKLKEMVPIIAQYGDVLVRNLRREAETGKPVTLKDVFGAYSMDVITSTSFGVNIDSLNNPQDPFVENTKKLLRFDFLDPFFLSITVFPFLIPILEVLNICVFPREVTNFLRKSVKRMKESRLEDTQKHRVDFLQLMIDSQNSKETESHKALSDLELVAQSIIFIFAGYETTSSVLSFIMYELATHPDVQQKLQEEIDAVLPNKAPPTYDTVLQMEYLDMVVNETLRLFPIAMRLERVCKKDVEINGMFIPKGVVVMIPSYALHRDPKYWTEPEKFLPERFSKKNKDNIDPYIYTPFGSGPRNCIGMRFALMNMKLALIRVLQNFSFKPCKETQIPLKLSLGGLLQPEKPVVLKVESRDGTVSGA
Cytochrome P450 2D6, sequence (P10635 whole entry): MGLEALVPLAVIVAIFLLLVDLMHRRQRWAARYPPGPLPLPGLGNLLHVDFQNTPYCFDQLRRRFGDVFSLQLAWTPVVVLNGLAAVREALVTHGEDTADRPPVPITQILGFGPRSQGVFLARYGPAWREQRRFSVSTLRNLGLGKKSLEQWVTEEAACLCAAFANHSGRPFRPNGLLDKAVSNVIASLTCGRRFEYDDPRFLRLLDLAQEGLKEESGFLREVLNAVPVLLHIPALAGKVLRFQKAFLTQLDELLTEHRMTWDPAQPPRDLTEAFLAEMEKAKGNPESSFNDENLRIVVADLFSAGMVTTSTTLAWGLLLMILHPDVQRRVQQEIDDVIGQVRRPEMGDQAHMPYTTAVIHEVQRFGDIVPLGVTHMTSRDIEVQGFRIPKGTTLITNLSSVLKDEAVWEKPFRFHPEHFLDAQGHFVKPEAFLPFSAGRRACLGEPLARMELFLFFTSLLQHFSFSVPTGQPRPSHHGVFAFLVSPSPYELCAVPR
Cytochrome P450 2C19, sequence (P33261 whole entry): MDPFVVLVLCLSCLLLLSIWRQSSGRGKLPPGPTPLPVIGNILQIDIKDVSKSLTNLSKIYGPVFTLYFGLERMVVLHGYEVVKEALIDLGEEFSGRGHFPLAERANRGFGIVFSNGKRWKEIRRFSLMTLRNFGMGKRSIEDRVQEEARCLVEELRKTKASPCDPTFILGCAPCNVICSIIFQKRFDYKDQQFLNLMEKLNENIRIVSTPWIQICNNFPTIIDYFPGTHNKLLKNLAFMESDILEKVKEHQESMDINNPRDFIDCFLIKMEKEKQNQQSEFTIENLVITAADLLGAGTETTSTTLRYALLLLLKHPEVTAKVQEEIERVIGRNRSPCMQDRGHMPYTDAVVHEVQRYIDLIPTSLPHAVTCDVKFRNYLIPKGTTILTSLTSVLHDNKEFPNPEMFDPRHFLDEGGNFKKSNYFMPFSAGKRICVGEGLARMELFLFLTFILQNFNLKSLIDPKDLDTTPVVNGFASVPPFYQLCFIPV

Vd [1]: 1.3 L/kg
IC50 (Cytochrome P450 1A2): > 20 µM
fraction unbound at 5 h, 1 µM [2]: 0.04
bioavailability [3]: 88%
half-life at 1 µM [4]: > 6 h
clearance [5]: 4.4 mL/min/kg
Cmax [6]: 2000 nM
Cmax at 24 h [7]: 1900 nM
fraction unbound at 5 h, 1 µM [8]: 0.028
AUC(0-inf) [9]: 20600 ng·h/mL
clearance [10]: 3.6 mL/min/kg
IC50 (Cytochrome P450 2B6): > 20 µM
IC50 (Cytochrome P450 2C9): > 20 µM
fraction unbound at 5 h, 1 µM [11]: 0.011
IC50 (Cytochrome P450 3A4): > 20 µM
half-life [12]: 4.4 h
fraction unbound at 5 h, 1 µM [13]: 0.028
Cmax at 24 h [14]: 560 nM
bioavailability at 24 h [15]: 31%
IC50 (Cytochrome P450 2D6): > 20 µM
Vd [16]: 1.3 L/kg
clearance [17]: 2.8 mL/min/kg
Vd [18]: 0.8 L/kg
IC50 (Cytochrome P450 2C19): > 20 µM
half-life [19]: 4.3 h
half-life [20]: 6.7 h
SMILES: C[C@H](NC(=O)c1c(N)nn2cccnc12)c1cc2cccc(C#Cc3cnn(C)c3)c2c(=O)n1-c1ccccc1 [EGANELISIB]
Activity (Salmonella typhimurium): Non-Toxic

Reference: ChEMBL document CHEMBL3853350 (ACS Med Chem Lett, 2016)
